Source: US11279768B1, “Anti-cancer antibodies, combination therapies, and uses thereof” (PRECISION BIOLOGICS, INC., priority 2015, dated 2022)

Experiments:
lung cancer samples [1] = assay: Immunohistochemistry, cancer tissue microarray, lung; format: binding
Description: (§1) FIG. 2. Immunohistochemistry results from cancer tissue arrays. Immunohistochemistry method (IHC) was used for determining the presence of NEO-101/102, NEO-201 and NEO-301 antigens on paraffin microarrays and tissues. These primary antibodies (NEO-101/NEO-102, NEO-201 and NEO-301) were biotinylated prior to use. Paraffin tissue Microarrays and slides of tissues were reacted with the primary Ab after inactivating endogenous peroxidase and blocking the slides. Staining was detected with streptavidin-horseradish peroxidase conjugate and visualized with chromogen. Biotinylated human IgG1 was used as negative control and mouse anti-human cytokeratin monoclonal antibody was used as positive control. Antibody staining is measured as % and intensity of tumor epithelial cells and luminal secretion within the whole tissue section.
(§2) Immunohistochemistry (IHC) was used for determining the presence of NEO-101/102, NEO-201 and NEO-301 antigens on paraffin microarrays and tissues. These primary antibodies (NEO-101/NEO-102, NEO-201 and NEO-301) were biotinylated prior to use. […] Staining was detected with streptavidin-horseradish peroxidase conjugate and visualized with chromogen. […] Antibody staining was measured as % and intensity of tumor epithelial cells and luminal secretion within the whole tissue section. […]

colon cancer samples [2] = assay: Immunohistochemistry, paraffin tissue sections, colon; format: binding
Description: as §1, §2

[3] = tested on: colorectal adenocarcinoma cells; assay: Antigen expression by Flow Cytometry, colorectal adenocarcinoma cell lines; format: binding, Human; conditions: multiple colorectal adenocarcinoma cell lines; primary antibody 10 ug/mL
Experimental: (§3) FIG. 1. NEO-101, NEO-201 and NEO-301 Antigen Expression by Human Normal and Cancer Cell Lines. NEO-101, NEO-201 and NEO-301 specific antigen expression in various cell lines were detected by Flow Cytometry. Viable cell suspensions were incubated with primary antibody NEO-101, NEO-201 and NEO-301 separately at 10 ug/mL. Human IgG (10 ug/mL) was used as negative control. Goat anti-human IgG (Fc)-phycoerythrin conjugate was used for primary antibody detection; 7-ADD was used for excluding dead cells from analysis. The staining was measured by Flow Cytometry (Guava instrument, Millipore). Median fluorescent intensity (MFI) and % of stained cells was used for determining presence of specific antigen on each cell line.
(§4) Antigen expression in cell lines of various origins were detected by Flow Cytometry. Viable cell suspensions were incubated with primary antibody NEO-101, NEO-201 and NEO-301 separately at 10 ug/mL. Human IgG (10 ug/mL) was used as negative control. Goat anti-human IgG (Fc)-phycoerythrin conjugate was used for primary antibody detection; 7-ADD was used for excluding dead cells from analysis. The staining was measured by Flow Cytometry (Guava instrument, Millipore). Median fluorescent intensity (MFI) and % of stained cells was used for determining presence of specific antigen on each cell line. […]

[4] = tested on: pancreatic adenocarcinoma cells; assay: Antigen expression by Flow Cytometry, pancreatic adenocarcinoma cell lines; format: binding, Human; conditions: primary antibody 10 ug/mL
Experimental: as §3, §4

[5] = tested on: lung squamous carcinoma cells; assay: Antigen expression by Flow Cytometry, lung squamous cell carcinoma cell lines; format: binding, Human; conditions: multiple lung squamous cell carcinoma cell lines; primary antibody 10 ug/mL
Experimental: as §3, §4

[6] = tested on: pancreatic cancer samples; assay: Immunohistochemistry, paraffin tissue sections, pancreas; format: binding
Description: as §1, §2

uterus cancer samples = assay: Immunohistochemistry, cancer tissue microarray, uterus; format: binding
Description: as §1, §2

[7] = tested on: lung adenocarcinoma cells; assay: Antigen expression by Flow Cytometry, lung adenocarcinoma cell lines; format: binding, Human; conditions: multiple lung adenocarcinoma cell lines; primary antibody 10 ug/mL
Experimental: as §3, §4

colon cancer samples [8] = assay: Immunohistochemistry, cancer tissue microarray, colon; format: binding
Description: as §1, §2

lung cancer samples [9] = assay: Immunohistochemistry, paraffin tissue sections, lung; format: binding
Description: as §1, §2

skin cancer samples = assay: Immunohistochemistry, cancer tissue microarray, skin; format: binding
Description: as §1, §2

[10] = tested on: pancreatic cancer samples; assay: Immunohistochemistry, cancer tissue microarray, pancreas; format: binding
Description: as §1, §2

stomach cancer samples = assay: Immunohistochemistry, cancer tissue microarray, stomach; format: binding
Description: as §1, §2

Row | Molecule | cancer samples positive for the antigen (IHC) (lung cancer samples [1]) [%] | cancer samples positive for the antigen (IHC) (colon cancer samples [2]) [%] | antigen expression detected by Flow Cytometry [3] | antigen expression detected by Flow Cytometry [4] | antigen expression detected by Flow Cytometry [5] | cancer samples positive for the antigen (IHC) [6] [%] | cancer samples positive for the antigen (IHC) (uterus cancer samples) [%] | antigen expression detected by Flow Cytometry [7] | cancer samples positive for the antigen (IHC) (colon cancer samples [8]) [%] | cancer samples positive for the antigen (IHC) (lung cancer samples [9]) [%] | cancer samples positive for the antigen (IHC) (skin cancer samples) [%] | cancer samples positive for the antigen (IHC) [10] [%] | cancer samples positive for the antigen (IHC) (stomach cancer samples) [%]
1 | NEO-201: Humanized 16C3 antibody; binds epitopes in CEACAM5 and CEACAM6 | 61 | 94 | detected | detected | detected | 83 | 51 | detected | 85 | 90 | 16 | 86 | –
2 | NEO-101: Chimeric NPC-1 antibody, engineered in CHO-DG44 production cell clone 4B7; targets a variant of MUC5AC (protein, NPC-1 antibody light chain; (46)..(55) CDR1; (71)..(77) CDR2; (110)..(118) CDR3; NPC-1 antibody heavy chain; (49)..(54) CDR1; (69)..(84) CDR2; (114)..(121) CDR3, Chimeric NPC-1 antibody, engineered in CHO-DG44 production cell clone 4B7; targets a variant of MUC5AC) light: MDFQVQIFSFLLISASVILSRGQVVLTQSPVIMSASPGEKVTMTCSASSSISYMYWYQQKPGTSPKRWIYDTSKLASGVPARFSGSGSGTSYSLTISNMEAGDAATYYCHQRDSYPWTFGGGTNLEIKRADAAPTVSIFPPSSEQLTSGGASVVCFLNNFYPKDINVKWKIDGSERQNGVLNSWTDQDSKDSTYSMSSTLTLTKDEYERHNSYTCEATHKTSTSPIVKSFNRNEC heavy: MAVLALLLCLVTFPSCVLSQVQLKESGPDLVAPSQSLSITCTVSGFSLSKFGVNWVRQPPGKGLEWLGVIWGDGSTSYNSGLISRLSISKENSKSQVFLKLNSLQADDTATYYCVKPGGDYWGHGTSVTVSSAKTTPPSVYPLAPGSAAQTNSMVTLGCLVKGYFPEPVTVTWNSGSLSSGVHTFPAVLQSDLYTLSSSVTVPSSTWPSETVTCNVAHPASSTKVDKKIVPRDCGCKPCICTVPEVSSVFIFPPKPKDVLTITLTPKVTCVVVDISKDDPEVQFSWFVDDVEVHTAQTQPREEQFNSTFRSVSELPIMHQDWLNGKEFKCRVNSAAFPAPIEKTISKTKGRPKAPQVYTIPPPKEQMAKDKVSLTCMITDFFPEDITVEWQWNGQPAENYKNTQPIMDTDGSYFVYSKLNVQKSNWEAGNTFTCSVLHEGLHNHHTEKSLSHSPGK | – | 87 | detected | detected | – | 82 | 41 | – | 61 | 67 | – | 31 | 30
